Measured values published in US9938269B2, “Inhibitor compounds of phosphodiesterase type 10A” (ABBVIE INC., priority 2011, dated 2018).
Where a name gives a salt, the structure may show the parent alone.

Key:
PDE10A (human) = target: T1, PDE10A (human) (Homo sapiens, UniProt Q9Y233); experiment: Measurement of PDE activity (HTRF cAMP kit), human PDE10A; assay type: biochemical; conditions: PDE enzymatic reaction, substrate 20 nM for PDE10, 60 minutes at 29 C
T1 construct: purchased BPS Bioscience
Summary of the method: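 Recombinant human PDE10A (10–250 pM range across PDEs) with 20 nM cAMP substrate in 20 mM Tris-HCl pH 7.5, 10 mM MgCl2, 0.1% BSA, compound pre-mixed with enzyme. Ran 60 min at 29 °C. Remaining cAMP read by HTRF, converted to % of uninhibited activity, and IC50 fitted.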

[1] = Determination of the microsomal half-life, rat liver microsomes; conditions: rat, liver microsomes, pH 7.4
[2] = Determination of the microsomal half-life, human liver microsomes; conditions: for microsomal CLint at 0.5 μM: human, liver microsomes, pH 7.4

T1 sequence (Q9Y233 whole entry): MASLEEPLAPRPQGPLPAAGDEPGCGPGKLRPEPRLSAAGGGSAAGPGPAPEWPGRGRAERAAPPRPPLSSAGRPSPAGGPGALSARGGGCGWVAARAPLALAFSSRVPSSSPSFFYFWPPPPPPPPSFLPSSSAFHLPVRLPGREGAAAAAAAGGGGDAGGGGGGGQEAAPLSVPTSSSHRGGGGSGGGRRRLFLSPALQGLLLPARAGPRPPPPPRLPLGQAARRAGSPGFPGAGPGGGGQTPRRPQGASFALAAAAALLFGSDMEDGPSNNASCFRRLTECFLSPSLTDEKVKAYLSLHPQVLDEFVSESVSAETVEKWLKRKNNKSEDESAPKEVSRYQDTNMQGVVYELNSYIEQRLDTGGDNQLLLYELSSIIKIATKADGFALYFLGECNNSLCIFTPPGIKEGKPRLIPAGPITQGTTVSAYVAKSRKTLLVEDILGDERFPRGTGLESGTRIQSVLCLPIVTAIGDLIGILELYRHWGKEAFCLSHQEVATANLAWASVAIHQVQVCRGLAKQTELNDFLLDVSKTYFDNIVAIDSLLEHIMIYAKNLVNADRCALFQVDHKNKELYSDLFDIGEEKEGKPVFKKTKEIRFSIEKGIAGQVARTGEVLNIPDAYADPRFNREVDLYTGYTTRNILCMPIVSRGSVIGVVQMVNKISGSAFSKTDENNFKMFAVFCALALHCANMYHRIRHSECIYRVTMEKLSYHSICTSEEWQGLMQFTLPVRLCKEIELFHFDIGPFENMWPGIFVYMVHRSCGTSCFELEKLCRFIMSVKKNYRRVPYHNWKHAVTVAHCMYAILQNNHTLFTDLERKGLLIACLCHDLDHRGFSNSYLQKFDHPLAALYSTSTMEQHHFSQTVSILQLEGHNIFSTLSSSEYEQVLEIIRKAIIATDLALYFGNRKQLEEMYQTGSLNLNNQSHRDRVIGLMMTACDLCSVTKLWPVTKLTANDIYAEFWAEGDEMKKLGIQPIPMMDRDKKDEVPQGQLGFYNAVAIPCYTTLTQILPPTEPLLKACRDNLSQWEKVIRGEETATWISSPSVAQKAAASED

SMILES | IC50 (PDE10A (human)) | microsomal CLint at 0.5 μM [1] | microsomal CLint at 0.5 μM [2] | Human mCl (mikrosomal clearance) ([2]; human liver microsomes, 0.5 μM test substance, 0.25 mg microsomal protein, pH 7.4, 37° C., NADPH)
O=C1c2c(N3CCC4(COC4)C3)ccnc2CN1CCc1nc2ccccc2s1 [compound 424, 6-[2-(1,3-Benzothiazol-2-yl)ethyl]-4-(2-oxa-7-azaspiro[3.4]octan-7-yl)-7H-pyrrolo[3,4-b]pyridin-5-one] | < 100 nM | < 100 µL/min/mg | < 100 µL/min/mg | –
O=C1c2c(N3CCOCC3)ccnc2CN1CCc1ccccn1 [compound 550, 4-Morpholino-6-[2-(2-pyridyl)ethyl]-7H-pyrrolo[3,4-b]pyridin-5-one] | 200 to 500 nM | < 100 µL/min/mg | < 100 µL/min/mg | –
O=C(O)C(F)(F)F.O=C1c2c(-c3ccnc(F)c3)ccnc2CN1CCc1nc2ccccc2s1 [compound 421, 6-[2-(1,3-Benzothiazol-2-yl)ethyl]-4-(2-fluoro-4-pyridyl)-7H-pyrrolo[3,4-b]pyridin-5-one trifluoroacetate] | < 100 nM | < 100 µL/min/mg | – | ◯
Cc1ccc(CCN2Cc3nccc(-c4ccncc4)c3C2=O)nc1C [compound 474, 6-[2-(5,6-Dimethyl-2-pyridyl)ethyl]-4-(4-pyridyl)-7H-pyrrolo[3,4-b]pyridin-5-one trifluoroacetate] | 100 to 200 nM | 100 to 220 µL/min/mg | 100 to 220 µL/min/mg | –
Cc1cc(-c2ccnc3c2C(=O)N(CCc2ccc4ccccc4n2)C3)n(C)n1 [Example 334, 4-(2,5-Dimethyl-2H-pyrazol-3-yl)-6-(2-quinolin-2-yl-ethyl)-6,7-dihydro-pyrrolo[3,4-b]pyridin-5-one] | 100 to 200 nM | < 100 µL/min/mg | < 100 µL/min/mg | –
Cc1cccnc1CCN1Cc2nccc(N3CCOCC3)c2C1=O [compound 522, 6-[2-(3-Methyl-2-pyridyl)ethyl]-4-morpholino-7H-pyrrolo[3,4-b]pyridin-5-one] | 100 to 200 nM | < 100 µL/min/mg | < 100 µL/min/mg | –
O=C1c2c(cccc2-c2ccc(F)cc2)CN1CCc1cn2ccccc2n1 [Example 236, 7-(4-Fluoro-phenyl)-2-(2-imidazol[1,2-a]pyridin-2-yl-ethyl)-2,3-dihydro-isoindol-1-one] | 200 to 500 nM | 100 to 220 µL/min/mg | 100 to 220 µL/min/mg | –
O=C1c2c(cccc2-c2ccncc2)CN1CCc1nc2ccccc2n1C(F)F [compound 450, 2-[2-(1-Difluoromethyl-1H-benzoimidazol-2-yl)-ethyl]-7-pyridin-4-yl-2,3-dihydro-isoindol-1-one trifluoroacetate] | 200 to 500 nM | 100 to 220 µL/min/mg | > 220 µL/min/mg | –
CCc1ccc(CCN2Cc3nccc(-c4ccncc4)c3C2=O)nc1 [compound 501, 6-[2-(5-Ethyl-2-pyridyl)ethyl]-4-(4-pyridyl)-7H-pyrrolo[3,4-b]pyridin-5-one trifluoroacetate] | 100 to 200 nM | 100 to 220 µL/min/mg | < 100 µL/min/mg | –
O=C1c2c(cccc2N2CCOCC2)CN1CCc1nc2ccccc2s1 [Example 263, 2-(2-Benzothiazol-2-yl-ethyl)-7-morpholin-4-yl-2,3-dihydro-isoindol-1-one trifluoroacetate] | < 100 nM | < 100 µL/min/mg | 100 to 220 µL/min/mg | –
O=C1c2c(-c3ccncc3)ccc(F)c2CN1CCc1cn2ccccc2n1 [Example 280, 4-Fluoro-2-(2-imidazo[1,2-a]pyridin-2-yl-ethyl)-7-pyridin-4-yl-2,3-dihydro-isoindol-1-one] | < 100 nM | 100 to 220 µL/min/mg | 100 to 220 µL/min/mg | –
O=C1c2cccc(-c3cc[nH]n3)c2CN1CCc1nc2ccccc2s1 [compound 428, 2-[2-(1,3-Benzothiazol-2-yl)ethyl]-4-(1H-pyrazol-3-yl)isoindolin-1-one] | < 100 nM | > 220 µL/min/mg | 100 to 220 µL/min/mg | –
CN1CCN(c2ccnc3c2C(=O)N(CCc2ccc4ccccc4n2)C3)CC1 [Example 138, 4-(4-Methyl-piperazin-1-yl)-6-(2-quinolin-2-yl-ethyl)-6,7-dihydro-pyrrolo[3,4-b]pyridin-5-one] | < 100 nM | < 100 µL/min/mg | < 100 µL/min/mg | –
O=C1c2c(-c3cncnc3)ccc(F)c2CN1CCc1cn2ccccc2n1 [Example 381, 4-Fluoro-2-(2-imidazo[1,2-a]pyridin-2-yl-ethyl)-7-pyrimidin-5-yl-2,3-dihydro-isoindol-1-one] | < 100 nM | < 100 µL/min/mg | 100 to 220 µL/min/mg | –
O=C1c2c(-c3ccnnc3)ccnc2CN1CCc1ccc2ccccc2n1 [Example 338, 4-Pyridazin-4-yl-6-(2-quinolin-2-yl-ethyl)-6,7-dihydro-pyrrolo[3,4-b]pyridin-5-one] | < 100 nM | < 100 µL/min/mg | < 100 µL/min/mg | –

Now from value to molecule, other results behind:

IC50 (PDE10A (human)) | microsomal CLint at 0.5 μM [1] | microsomal CLint at 0.5 μM [2] | SMILES | Human mCl (mikrosomal clearance) ([2]; human liver microsomes, 0.5 μM test substance, 0.25 mg microsomal protein, pH 7.4, 37° C., NADPH)
< 100 nM | < 100 µL/min/mg | < 100 µL/min/mg | COc1ccc(N2CCOCC2)c2c1CN(CCc1ccc3ccccc3n1)C2=O [Example 248, 4-Methoxy-7-morpholin-4-yl-2-(2-quinolin-2-yl-ethyl)-2,3-dihydro-isoindol-1-one] | –
< 100 nM | 100 to 220 µL/min/mg | 100 to 220 µL/min/mg | O=C1c2c(N3CCOCC3)ccnc2CN1CCc1ccc2sccc2n1 [compound 491, 4-Morpholino-6-(2-thieno[3,2-b]pyridin-5-ylethyl)-7H-pyrrolo[3,4-b]pyridin-5-one] | –
< 100 nM | < 100 µL/min/mg | < 100 µL/min/mg | Cc1cccn2cc(CCN3Cc4nccc(-c5ccncc5)c4C3=O)nc12 [compound 496, 6-[2-(8-Methylimidazo[1,2-a]pyridin-2-yl)ethyl]-4-(4-pyridyl)-7H-pyrrolo[3,4-b]pyridin-5-one trifluoroacetate] | –
< 100 nM | 100 to 220 µL/min/mg | 100 to 220 µL/min/mg | Cc1cnc(CCN2Cc3nccc(N4CCOCC4)c3C2=O)c(C)c1 [compound 489, 6-[2-(3,5-Dimethyl-2-pyridyl)ethyl]-4-morpholino-7H-pyrrolo[3,4-b]pyridin-5-one] | –
< 100 nM | < 100 µL/min/mg | < 100 µL/min/mg | O=C1c2c(NC3COC3)ccnc2CN1CCc1ccc2ccccc2n1 [Example 275, 4-(Oxetan-3-ylamino)-6-(2-quinolin-2-yl-ethyl)-6,7-dihydro-pyrrolo[3,4-b]pyridin-5_] | –
< 100 nM | 100 to 220 µL/min/mg | < 100 µL/min/mg | CCc1ccn2cc(CCN3Cc4nccc(-c5ccncc5)c4C3=O)nc2c1 [compound 552, 6-[2-(7-Ethylimidazo[1,2-a]pyridin-2-yl)ethyl]-4-(4-pyridyl)-7H-pyrrolo[3,4-b]pyridin-5-one] | –
< 100 nM | 100 to 220 µL/min/mg | 100 to 220 µL/min/mg | Cc1ccc(CCN2Cc3nccc(N4CCOCC4)c3C2=O)nc1C [compound 554, 6-[2-(5,6-Dimethyl-2-pyridyl)ethyl]-4-morpholino-7H-pyrrolo[3,4-b]pyridin-5-one] | –
< 100 nM | 100 to 220 µL/min/mg | > 220 µL/min/mg | O=C1c2c(cccc2N2CCCOCC2)CN1CCc1ccc2ccccc2n1 [Example 110, 7-[1,4]Oxazepan-4-yl-2-(2-quinolin-2-yl-ethyl)-2,3-dihydro-isoindol-1-one hydrochloride] | –
